≈ marks a conversion by molar mass, not a printed value.
Tests used:
[1] = Cytotoxicity against African green monkey Vero cells infected with Herpes simplex virus 1 after 72 hrs by MTT assay; assay type: cell-based; conditions: chlorocebus sabaeus, read-out: TC50
[2] = tested on: Influenza A virus H3N2; assay: Antiviral activity against Influenza A virus H3N2 infected in African green monkey Vero cells assessed as inhibition of virus-induced cytopathogenic effect by microscopic analysis; assay type: functional, organism-based
[3] = tested on: Human alphaherpesvirus 1; assay: Antiviral activity against Herpes simplex virus 1 infected in African green monkey Vero cells assessed as inhibition of virus-induced cytopathogenic effect by microscopic analysis; assay type: functional, organism-based; conditions: Human alphaherpesvirus 1, Vero
[4] = (§1) Selectivity index, ratio of TC50 against African green monkey Vero cells infected with Herpes simplex virus 1 after 72 hrs by MTT assay to IC50 against Herpes simplex virus 1 infected in African green monkey Vero cells assessed as inhibition of virus-induced cytopathogenic effect by microscopic analysis; assay type: toxicity; conditions: read-out: Selectivity Index
[5] = as §1, with “Influenza A” for “Herpes simplex”, “H3N2” for “1”; assay type: toxicity; conditions: read-out: Selectivity Index
[6] = Selectivity index, ratio of TC50 against African green monkey Vero cells infected with Coxsackievirus B3 after 72 hrs by MTT assay to IC50 against Coxsackievirus B3 infected in African green monkey Vero cells assessed as inhibition of virus-induced cytopathogenic effect by microscopic analysis; assay type: toxicity; conditions: read-out: Selectivity Index
[7] = Cytotoxicity against African green monkey Vero cells infected with Hepatitis C virus after 72 hrs by MTT assay; assay type: cell-based; conditions: chlorocebus sabaeus, read-out: TC50
[8] = Cytotoxicity against African green monkey Vero cells infected with Influenza A virus H3N2 after 72 hrs by MTT assay; assay type: cell-based; conditions: chlorocebus sabaeus, read-out: TC50
[9] = tested on: Human papillomavirus; assay: Antiviral activity against Human papillomavirus infected in African green monkey Vero cells assessed as inhibition of virus-induced cytopathogenic effect by microscopic analysis; assay type: functional, organism-based
[10] = tested on: Coxsackievirus B3; assay: Antiviral activity against Coxsackievirus B3 infected in African green monkey Vero cells assessed as inhibition of virus-induced cytopathogenic effect by microscopic analysis; assay type: functional, organism-based; conditions: Enterovirus B
[11] = Cytotoxicity against African green monkey Vero cells infected with Herpes simplex virus 2 after 72 hrs by MTT assay; assay type: cell-based; conditions: chlorocebus sabaeus, read-out: TC50
[12] = as §1, with “2” for “1”; assay type: toxicity; conditions: read-out: Selectivity Index
[13] = Selectivity index, ratio of TC50 against African green monkey Vero cells infected with Hepatitis C virus after 72 hrs by MTT assay to IC50 against Hepatitis C virus infected in African green monkey Vero cells assessed as inhibition of virus-induced cytopathogenic effect by microscopic analysis; assay type: toxicity; conditions: read-out: Selectivity Index
[14] = tested on: Human alphaherpesvirus 2; assay: Antiviral activity against Herpes simplex virus 2 infected in African green monkey Vero cells assessed as inhibition of virus-induced cytopathogenic effect by microscopic analysis; assay type: functional, organism-based; conditions: Human alphaherpesvirus 2, Vero
[15] = Cytotoxicity against African green monkey Vero cells infected with Hepatitis B virus after 72 hrs by MTT assay; assay type: cell-based; conditions: chlorocebus sabaeus, read-out: TC50
[16] = tested on: Hepatitis C virus; assay: Antiviral activity against Hepatitis C virus infected in African green monkey Vero cells assessed as inhibition of virus-induced cytopathogenic effect by microscopic analysis; assay type: functional, organism-based, Hepacivirus hominis
[17] = Selectivity index, ratio of TC50 against African green monkey Vero cells infected with Hepatitis B virus after 72 hrs by MTT assay to IC50 against Hepatitis B virus infected in African green monkey Vero cells assessed as inhibition of virus-induced cytopathogenic effect by microscopic analysis; assay type: toxicity; conditions: read-out: Selectivity Index
[18] = Cytotoxicity against African green monkey Vero cells infected with Coxsackievirus B3 after 72 hrs by MTT assay; assay type: cell-based; conditions: chlorocebus sabaeus, read-out: TC50
[19] = Selectivity index, ratio of TC50 against African green monkey Vero cells infected with Human papillomavirus after 72 hrs by MTT assay to IC50 against Human papillomavirus infected in African green monkey Vero cells assessed as inhibition of virus-induced cytopathogenic effect by microscopic analysis; assay type: toxicity; conditions: read-out: Selectivity Index
[20] = Cytotoxicity against African green monkey Vero cells infected with Human papillomavirus after 72 hrs by MTT assay; assay type: cell-based; conditions: chlorocebus sabaeus, read-out: TC50

Structure (SMILES) | CC50 at 72 h [1] | IC50 [2] | IC50 [3] | selectivity ratio at 72 h [4] | further results
Nc1nc(=O)n([C@@H]2O[C@H](CO)[C@@H](O)[C@H]2O)c2nc[nH]c(=O)c12 | 2.97 µg/mL (≈ 9.54 µM) | > 1.37 µg/mL | > 0.79 µg/mL | – | –
C[C@H]1O[C@@H](n2c(=O)nc(N)c3c(=O)[nH]c(N)nc32)[C@H](O)[C@@H]1O | 8.56 µg/mL (≈ 27.6 µM) | > 4.12 µg/mL | 2.08 µg/mL (≈ 6.7 µM) | 4.1 | –
Nc1nc2[nH]c(=O)nc(N)c2c(=O)[nH]1 | 16 µg/mL (≈ 82.6 µM) | 27.8 µg/mL (≈ 143 µM) | > 9.26 µg/mL | – | –
O/N=C/c1c(Cl)ncnc1NCc1ccc(Br)cc1 | 12.8 µg/mL (≈ 37.6 µM) | – | 0.82 µg/mL (≈ 2.4 µM) | 15.7 | –
Nc1ncn([C@@H]2O[C@H](CO)[C@@H](O)[C@H]2O)c2nc(=O)[nH]c(=O)c1-2 | 577 µg/mL (≈ 1850 µM) | > 333 µg/mL | > 333 µg/mL | – | –
O/N=C/c1c(Cl)ncnc1NCc1ccccc1 | 7.41 µg/mL (≈ 28.2 µM) | – | 1.92 µg/mL (≈ 7.31 µM) | 3.86 | –
Nc1ncn([C@H]2O[C@@H](CO)[C@H](O)[C@@H]2O)c2nc(=O)[nH]c(=O)c1-2 | 577 µg/mL (≈ 1850 µM) | > 333 µg/mL | 333 µg/mL (≈ 1070 µM) | 1.7 | –
COc1ccc(Cn2c(=O)nc(N)c3c(OC)nc(N)nc32)cc1 | 55.6 µg/mL (≈ 169 µM) | 18.5 µg/mL (≈ 56.4 µM) | 12.9 µg/mL (≈ 39.3 µM) | 4.3 | selectivity ratio at 72 h [5]: 3.3
COc1nc(N)nc2[nH]c(=O)nc(N)c12 | 48.1 µg/mL (≈ 231 µM) | > 9.26 µg/mL | 7.31 µg/mL (≈ 35.1 µM) | 6.6 | –
CC(C)(C)c1ccc(CNc2ncnc(Cl)c2/C=N\O)cc1 | 1.43 µg/mL (≈ 4.49 µM) | – | 0.48 µg/mL (≈ 1.51 µM) | 2.97 | –
O/N=C/c1c(Cl)ncnc1NCc1ccc(Cl)cc1 | 3.18 µg/mL (≈ 10.7 µM) | – | 0.57 µg/mL (≈ 1.92 µM) | 5.58 | –
Nc1ccc(CNc2ncnc(Cl)c2/C=N/O)cc1 | 2.47 µg/mL (≈ 8.89 µM) | – | 0.47 µg/mL (≈ 1.69 µM) | 5.26 | –
Cc1ccc(CNc2ncnc(Cl)c2/C=N/O)cc1 | 1.11 µg/mL (≈ 4.01 µM) | – | 0.21 µg/mL (≈ 0.759 µM) | 5.29 | –
COc1ccccc1CCNc1ncnc(Cl)c1/C=N/O | 80.1 µg/mL (≈ 261 µM) | – | 3.56 µg/mL (≈ 11.6 µM) | 22.5 | –
COc1ccccc1Nc1ncnc(Cl)c1/C=N/O | 8.9 µg/mL (≈ 31.9 µM) | – | 1.43 µg/mL (≈ 5.13 µM) | 6.22 | –
Nc1nc2c(c(N)nc(=O)n2[C@@H]2O[C@H](CO)[C@@H](O)[C@H]2O)c(=O)[nH]1 | 144 µg/mL (≈ 442 µM) | 9.26 µg/mL (≈ 28.4 µM) | > 83.3 µg/mL | – | selectivity ratio at 72 h [5]: 13
COc1ccc(CNc2ncnc(Cl)c2/C=N/O)cc1 | 2.47 µg/mL (≈ 8.44 µM) | – | 0.35 µg/mL (≈ 1.2 µM) | 7.06 | –

Structure (SMILES) | CC50 at 72 h [1] | IC50 [2] | IC50 [3] | selectivity ratio at 72 h [4] | further results
Nc1ncnc2c1c(=O)[nH]c(=O)n2[C@H]1O[C@@H](CO)[C@H](O)[C@@H]1O | 40.5 µg/mL (≈ 130 µM) | > 33.3 µg/mL | > 30.2 µg/mL | – | –
COc1ccccc1CCCNc1ncnc(Cl)c1/C=N/O | 1.29 µg/mL (≈ 4.02 µM) | – | > 0.19 µg/mL | – | –
CC(C)(C)c1ccc(CNc2ncnc(Cl)c2/C=N/O)cc1 | 0.26 µg/mL (≈ 0.816 µM) | 0.27 µg/mL (≈ 0.847 µM) | 0.05 µg/mL (≈ 0.157 µM) | 5.2 | selectivity ratio at 72 h [6]: 4.92; CC50 at 72 h [7]: 19.3 µg/mL (≈ 60.5 µM); CC50 at 72 h [8]: 0.48 µg/mL (≈ 1.51 µM); IC50 [9]: 5.6 µg/mL (≈ 17.6 µM); IC50 [10]: 0.12 µg/mL (≈ 0.376 µM); CC50 at 72 h [11]: 0.53 µg/mL (≈ 1.66 µM); selectivity ratio at 72 h [12]: 13.2; selectivity ratio at 72 h [5]: 1.78; selectivity ratio at 72 h [13]: 17.8; IC50 [14]: 0.04 µg/mL (≈ 0.125 µM); CC50 at 72 h [15]: 0.0397 µg/mL (≈ 0.124 µM); IC50 [16]: 1.15 µg/mL (≈ 3.61 µM); selectivity ratio at 72 h [17]: 17.9; CC50 at 72 h [18]: 0.64 µg/mL (≈ 2.01 µM); selectivity ratio at 72 h [19]: 1.75; CC50 at 72 h [20]: 9.8 µg/mL (≈ 30.7 µM)
Nc1nc2c(c(N)nc(=O)n2[C@H]2C[C@H](O)[C@@H](CO)O2)c(=O)[nH]1 | 347 µg/mL (≈ 1120 µM) | > 250 µg/mL | > 167 µg/mL | – | –
Nc1ncn([C@H]2C[C@H](O)[C@@H](CO)O2)c2nc(=O)[nH]c(=O)c1-2 | 577 µg/mL (≈ 1960 µM) | > 111 µg/mL | > 333 µg/mL | – | –
COc1ccccc1CNc1ncnc(Cl)c1/C=N/O | 0.86 µg/mL (≈ 2.94 µM) | 0.27 µg/mL (≈ 0.922 µM) | 0.04 µg/mL (≈ 0.137 µM) | 21.5 | selectivity ratio at 72 h [6]: 17.2; CC50 at 72 h [7]: 32.4 µg/mL (≈ 111 µM); CC50 at 72 h [8]: 1.19 µg/mL (≈ 4.07 µM); IC50 [9]: 7.9 µg/mL (≈ 27 µM); IC50 [10]: 0.05 µg/mL (≈ 0.171 µM); CC50 at 72 h [11]: 1.11 µg/mL (≈ 3.79 µM); selectivity ratio at 72 h [12]: 3.83; selectivity ratio at 72 h [5]: 4.41; selectivity ratio at 72 h [13]: 27.2; IC50 [14]: 0.29 µg/mL (≈ 0.991 µM); CC50 at 72 h [15]: 0.063 µg/mL (≈ 0.215 µM); IC50 [16]: 1.19 µg/mL (≈ 4.07 µM); selectivity ratio at 72 h [17]: 25.3; CC50 at 72 h [18]: 0.86 µg/mL (≈ 2.94 µM); selectivity ratio at 72 h [19]: 1.71; CC50 at 72 h [20]: 13.5 µg/mL (≈ 46.1 µM)
CO/N=C\c1c(Cl)ncnc1NCc1ccccc1OC | 80.1 µg/mL (≈ 261 µM) | – | 14.4 µg/mL (≈ 46.8 µM) | 5.58 | –
CO/N=C/c1c(Cl)ncnc1NCc1ccccc1OC | 38.5 µg/mL (≈ 126 µM) | – | 4.28 µg/mL (≈ 14 µM) | 9 | –
Nc1ncnc2c1c(=O)[nH]c(=O)n2[C@@H]1O[C@H](CO)[C@@H](O)[C@@H]1O | > 250 µg/mL | > 333 µg/mL | > 83.3 µg/mL | – | –
C[C@H]1O[C@@H](n2cnc(N)c3c(=O)[nH]c(=O)nc2-3)[C@H](O)[C@@H]1O | 500 µg/mL (≈ 1690 µM) | 167 µg/mL (≈ 564 µM) | 167 µg/mL (≈ 564 µM) | 3 | selectivity ratio at 72 h [5]: 3
O/N=C/c1c(Cl)ncnc1NCc1ccc(F)cc1 | 12.8 µg/mL (≈ 45.7 µM) | – | > 2.47 µg/mL | – | –
Nc1ncn([C@@H]2O[C@H](CO)[C@@H](O)[C@@H]2O)c2nc(=O)[nH]c(=O)c1-2 | 1.78 µg/mL (≈ 5.72 µM) | > 0.46 µg/mL | > 0.59 µg/mL | – | –
COc1ccc(Cn2c(=O)nc(N)c3c(=O)[nH]c(N)nc32)cc1 | 18.5 µg/mL (≈ 58.9 µM) | > 55.6 µg/mL | > 6.17 µg/mL | – | –
COc1cccc(CNc2ncnc(Cl)c2/C=N/O)c1 | 2.31 µg/mL (≈ 7.89 µM) | – | 0.48 µg/mL (≈ 1.64 µM) | 4.81 | –
Nc1ncn([C@@H]2O[C@H](CO)C[C@H]2O)c2nc(=O)[nH]c(=O)c1-2 | 347 µg/mL (≈ 1170 µM) | > 83.3 µg/mL | 75.9 µg/mL (≈ 257 µM) | 4.6 | –
COc1ccccc1CNc1ncnc(Cl)c1/C=N\O | 10.7 µg/mL (≈ 36.5 µM) | – | 4.79 µg/mL (≈ 16.4 µM) | 2.23 | –
NC(=O)c1ncn([C@@H]2O[C@H](CO)[C@@H](O)[C@H]2O)n1 [RIBAVIRIN] | > 200 µg/mL | – | 38.5 µg/mL (≈ 158 µM) | > 5.2 | –
